pIC50: −log10 of the molar value.
What was measured:
[1] = Liver microsomes study, Phase I stability (RLM); assay type: in vitro ADME, rat; conditions: pH 7.4; rat liver microsomes 0.5 mg/mL, 1 μM test article; read-out: RLM Clint
Method: (§1) Commercially available liver microsomes (MsLM vendor: XENOTECH; RLM, DLM, MkL, HLM vendor: Corning) were used for study the Phase I stability of test articles. […] The reaction was initiated by addition of 80 μL of the NADPH regenerating system to 320 µL of each incubation mixture per time point. […] The 0-minute samples were prepared by addition of an 80 μL aliquot of each incubation mixture to 400 μL quench reagent to precipitate proteins. And then a 20 μL aliquot of the NADPH regenerating system was added. At 10, 30, and 90 minutes, the reaction will be stopped by the addition of cold acetonitrile solution containing tolbutamide and propanolol served as internal standard. The samples taken at all time points were centrifuged at 4000×g for 15 minutes. 80 μL of supernatant are taken into 96-well assay plates pre-added with 160 μL ultrapure water, and then analyzed by LC/MS/MS(Shimadzu LC30AD & API4000/API5000)). Concentrations of test articles, control compounds in the samples were determined by using LC/MS/MS) method. Plotting of the chromatograms and peak area integrations are carried out by Analyst (AB Sciex).
(§2) In the determination of the in vitro elimination constant, ke, of the control compounds, the analyte/internal standard peak area ratios will be converted to percentage remaining (% Remaining) with the following equation: […]
(§3) The slope was measured by the natural logarithm of the percentage of the residual compound and time, T½ and CLint were calculated according to the following formulas, V/M was equal to the 1/concentration of protein.

[2] = Rat pharmacokinetic study (intravenous and oral); assay type: in vivo; conditions: male, plasma, Sprague-Dawley rats, intravenous, 1 mg/kg, solution
Method: Pharmacokinetic profile of test articles in rodent were evaluated in fasted male ICR mouse and Sprague-Dawley rats. […] Typically, mice were dosed with 2 mg/kg and 10 mg/kg by intravenous injection and oral gavage, respectively. Rats were dosed with 1 mg/kg and 5 mg/kg by intravenous injection and oral gavage, respectively. Beagle dogs were dosed with 1 mg/kg and 5 mg/kg by intravenous injection and oral gavage, respectively. After dosing, blood samples were collected at each time point. For IV injection group, time points were set at 5, 15, 30 min, and then 1, 2, 4, 8 and 24 hours after dosing. For oral gavage group, timepoints were set at 15, 30 m, and then 1, 2, 4, 8, and 24 hours. Blood was collected into appropriately labeled tubes containing K2EDTA as the anticoagulant. Plasma was obtained within 1 hours of blood collection by centrifugation at 8000×g and 4° C. for 6 minutes, and then stored at −20° C. until analyzed by LCMS/MS for quantification.

JAK2 = molecular target: T1, JAK2 (Homo sapiens, UniProt O60674); experiment: JAK2 microfluidic kinase assay (Caliper EZ Reader II, FAM labeled peptide substrate); assay type: biochemical
T1 construct: purchased Carna Biosciences
Summary of the method: (§4)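 Compounds, serially diluted 3-fold from 5 μM, were preincubated 10 min with enzyme at ambient temperature before reaction in HEPES/Brij35/MgCl2/DTT buffer (1% DMSO final), tuned to 10% peptide conversion. After EDTA stop, FAM-peptide phosphorylation was measured by Caliper EZ Reader II; IC50 fitted from percent-inhibition curves.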

[3] = Liver microsomes study, Phase I stability (HLM); assay type: in vitro ADME, human; conditions: pH 7.4; human liver microsomes 0.5 mg/mL, 1 μM test article; read-out: HLM Clint
Method: as §1, §2, §3

JAK2V617F = molecular target: T2, JAK2V617F (Homo sapiens, UniProt O60674, V617F); experiment: JAK2V617F microfluidic kinase assay (Caliper EZ Reader II, FAM labeled peptide substrate); assay type: biochemical; conditions: JAK2V617F 2.5 nM, 1 mM ATP
T2 construct: purchased Carna Biosciences
Summary of the method: as §4

JAK1 = molecular target: T3, JAK1 (Homo sapiens, UniProt P23458); experiment: JAK1 microfluidic kinase assay (Caliper EZ Reader II, FAM labeled peptide substrate); assay type: biochemical
T3 construct: purchased Carna Biosciences
Summary of the method: as §4

TYK2 = molecular target: T4, TYK2 (Homo sapiens, UniProt P29597); experiment: TYK2 microfluidic kinase assay (Caliper EZ Reader II, FAM labeled peptide substrate); assay type: biochemical; conditions: IC50 TYK2 ([…]) (1 mM ATP), TYK2 […], 1 mM ATP
T4 construct: purchased Carna Biosciences
Summary of the method: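 3-fold series, top 5 μM, 1% DMSO; 10 min preincubation with enzyme, RT. Buffer 50 mM HEPES/10 mM MgCl2/2 mM DTT/0.01% Brij35. Run times JAK1 120 min, JAK2 20, JAK2V617F 30, TYK2 10. Stopped with 50 mM EDTA; IC50 from % inhibition vs no-enzyme and DMSO controls.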

CYP2C9 = molecular target: T5, CYP2C9 (Homo sapiens, UniProt P11712); experiment: CYPs inhibition in pooled human liver microsomes, probe substrate Diclofenac; assay type: in vitro ADME
T5 construct: 0.2 mg/mL human liver microsomes was pre-incubated in 180 μL reaction mixture; from tissue; host or cells: pooled human liver microsomes
Method: (§5) The inhibitory potential of test articles in pooled human liver microsomes was evaluated by the method using a cocktail of CYP substrates. […] For the negative control well, the test articles was replaced with 20 μL reaction buffer. After 10 min of pre-incubation at 37° C., 20 μL 10 mM NADPH cofactor was added to the pre-reaction mixtures. After another 10 min incubation, the reaction was stopped by adding 400 μL of ice cold acetonitrile solution containing tolbutamide and labetalol served as internal standards. The incubation mixtures were centrifuged at 4000×g for 20 min, and then the supernatants were analyzed by LC-MS/MS after dilution. SigmaPlot was applied to plot % control activity versus the test compound concentrations, and for non-linear regression analysis of the data. IC50 values of test articles were determined using 3-parameter logistic equation.

CYP3A4 = molecular target: T6, CYP3A4 (Homo sapiens, UniProt P08684); experiment: CYPs inhibition in pooled human liver microsomes, probe substrate Midazolam; assay type: in vitro ADME
T6 construct: 0.2 mg/mL human liver microsomes was pre-incubated in 180 μL reaction mixture; from tissue; host or cells: pooled human liver microsomes
Method: as §5

CYP1A2 = molecular target: T7, CYP1A2 (Homo sapiens, UniProt P05177); experiment: CYPs inhibition in pooled human liver microsomes, probe substrate Phenacetin; assay type: in vitro ADME
T7 construct: 0.2 mg/mL human liver microsomes was pre-incubated in 180 μL reaction mixture; from tissue; host or cells: pooled human liver microsomes
T7 sequence (P05177 1-516): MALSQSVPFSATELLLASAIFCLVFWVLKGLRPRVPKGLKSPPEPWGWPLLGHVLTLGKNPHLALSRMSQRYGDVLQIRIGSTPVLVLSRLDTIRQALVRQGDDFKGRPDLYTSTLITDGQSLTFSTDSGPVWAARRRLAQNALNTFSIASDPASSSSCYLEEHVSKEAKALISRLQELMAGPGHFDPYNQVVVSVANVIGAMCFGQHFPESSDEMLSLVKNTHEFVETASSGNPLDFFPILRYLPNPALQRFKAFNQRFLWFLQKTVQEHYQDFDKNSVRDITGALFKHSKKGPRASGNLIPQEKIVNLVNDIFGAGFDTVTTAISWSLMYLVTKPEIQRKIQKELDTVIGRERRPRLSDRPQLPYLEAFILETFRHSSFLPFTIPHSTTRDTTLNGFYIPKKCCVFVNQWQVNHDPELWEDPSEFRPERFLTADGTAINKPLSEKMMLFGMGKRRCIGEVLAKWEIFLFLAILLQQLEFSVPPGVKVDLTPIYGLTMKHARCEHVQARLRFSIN
Method: as §5

CYP2D6 = molecular target: T8, CYP2D6 (Homo sapiens, UniProt P10635); experiment: CYPs inhibition in pooled human liver microsomes, probe substrate Dextromethorphan; assay type: in vitro ADME
T8 construct: 0.2 mg/mL human liver microsomes was pre-incubated in 180 μL reaction mixture; from tissue; host or cells: pooled human liver microsomes
Method: as §5

CYP2C19 = molecular target: T9, CYP2C19 (Homo sapiens, UniProt P33261); experiment: CYPs inhibition in pooled human liver microsomes, probe substrate S-mephenytoin; assay type: in vitro ADME
T9 construct: 0.2 mg/mL human liver microsomes was pre-incubated in 180 μL reaction mixture; from tissue; host or cells: pooled human liver microsomes
Method: as §5

[4] = IC50 JAK2 ([…]) (1 mM ATP), 1 mM ATP
[5] = IC50 JAK2 ([…]) (Km ATP), Km ATP
[6] = IC50 JAK1 (5 nM) (1 m MATP), JAK1 5 nM, 1 mM ATP

T3 sequence (P23458 whole entry): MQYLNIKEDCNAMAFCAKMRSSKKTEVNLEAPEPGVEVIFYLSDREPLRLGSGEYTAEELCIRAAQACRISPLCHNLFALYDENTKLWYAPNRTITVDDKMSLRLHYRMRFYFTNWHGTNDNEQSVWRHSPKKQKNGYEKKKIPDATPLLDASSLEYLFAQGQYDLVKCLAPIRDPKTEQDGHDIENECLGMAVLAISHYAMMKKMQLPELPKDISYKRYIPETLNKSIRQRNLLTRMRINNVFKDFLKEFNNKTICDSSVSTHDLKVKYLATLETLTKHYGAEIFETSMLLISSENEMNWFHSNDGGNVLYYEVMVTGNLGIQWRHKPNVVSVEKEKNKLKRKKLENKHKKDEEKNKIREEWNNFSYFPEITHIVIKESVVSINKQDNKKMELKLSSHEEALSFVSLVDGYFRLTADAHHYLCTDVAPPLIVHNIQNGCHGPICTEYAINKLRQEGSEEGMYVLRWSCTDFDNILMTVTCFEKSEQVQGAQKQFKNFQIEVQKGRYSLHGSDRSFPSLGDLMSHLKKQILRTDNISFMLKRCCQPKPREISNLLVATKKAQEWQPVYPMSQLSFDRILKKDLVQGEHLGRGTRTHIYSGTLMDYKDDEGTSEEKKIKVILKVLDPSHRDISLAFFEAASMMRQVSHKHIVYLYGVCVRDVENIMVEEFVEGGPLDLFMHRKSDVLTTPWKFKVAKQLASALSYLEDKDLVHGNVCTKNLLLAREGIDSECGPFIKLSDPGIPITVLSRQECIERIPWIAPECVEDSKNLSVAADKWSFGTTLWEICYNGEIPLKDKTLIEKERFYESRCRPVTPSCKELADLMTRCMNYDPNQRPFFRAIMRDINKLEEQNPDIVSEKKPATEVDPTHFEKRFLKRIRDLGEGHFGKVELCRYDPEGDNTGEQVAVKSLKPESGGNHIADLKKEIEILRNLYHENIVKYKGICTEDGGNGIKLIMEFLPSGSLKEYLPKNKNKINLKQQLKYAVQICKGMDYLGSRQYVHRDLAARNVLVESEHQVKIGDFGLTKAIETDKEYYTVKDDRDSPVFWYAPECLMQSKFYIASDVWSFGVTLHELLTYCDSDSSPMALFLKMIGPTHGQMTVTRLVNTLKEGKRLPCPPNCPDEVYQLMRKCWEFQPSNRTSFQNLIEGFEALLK
T4 sequence (P29597 whole entry): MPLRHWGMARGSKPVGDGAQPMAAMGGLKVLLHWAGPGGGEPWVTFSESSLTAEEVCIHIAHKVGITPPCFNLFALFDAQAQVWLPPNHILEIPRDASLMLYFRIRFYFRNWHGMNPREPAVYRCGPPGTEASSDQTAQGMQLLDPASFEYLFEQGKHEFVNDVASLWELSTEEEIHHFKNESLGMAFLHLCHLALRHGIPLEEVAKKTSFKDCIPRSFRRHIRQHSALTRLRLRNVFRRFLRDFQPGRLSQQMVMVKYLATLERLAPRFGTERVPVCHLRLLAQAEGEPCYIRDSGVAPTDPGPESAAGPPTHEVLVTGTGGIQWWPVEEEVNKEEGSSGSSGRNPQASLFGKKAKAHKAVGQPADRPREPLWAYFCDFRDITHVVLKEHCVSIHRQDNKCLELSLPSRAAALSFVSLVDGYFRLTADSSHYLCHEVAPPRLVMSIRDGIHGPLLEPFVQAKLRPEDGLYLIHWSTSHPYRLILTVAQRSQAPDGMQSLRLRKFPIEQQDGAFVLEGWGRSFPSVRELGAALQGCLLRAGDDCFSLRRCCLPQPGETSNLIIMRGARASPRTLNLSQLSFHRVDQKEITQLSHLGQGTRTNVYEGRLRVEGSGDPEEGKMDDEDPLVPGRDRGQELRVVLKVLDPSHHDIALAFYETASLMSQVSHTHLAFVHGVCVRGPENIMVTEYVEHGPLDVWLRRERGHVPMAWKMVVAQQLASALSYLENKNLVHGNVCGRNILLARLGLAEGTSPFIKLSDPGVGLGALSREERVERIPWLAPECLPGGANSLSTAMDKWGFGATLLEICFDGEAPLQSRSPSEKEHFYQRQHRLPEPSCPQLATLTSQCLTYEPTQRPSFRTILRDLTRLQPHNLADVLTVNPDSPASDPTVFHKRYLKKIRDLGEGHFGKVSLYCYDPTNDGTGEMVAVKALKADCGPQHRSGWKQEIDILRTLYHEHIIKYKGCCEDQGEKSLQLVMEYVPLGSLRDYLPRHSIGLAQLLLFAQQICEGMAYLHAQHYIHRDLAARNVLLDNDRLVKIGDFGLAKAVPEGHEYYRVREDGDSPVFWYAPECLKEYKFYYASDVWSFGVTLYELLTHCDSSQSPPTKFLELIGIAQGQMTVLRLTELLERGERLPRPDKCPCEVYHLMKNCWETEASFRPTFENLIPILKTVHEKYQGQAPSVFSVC
T2 sequence (O60674 whole entry V617F): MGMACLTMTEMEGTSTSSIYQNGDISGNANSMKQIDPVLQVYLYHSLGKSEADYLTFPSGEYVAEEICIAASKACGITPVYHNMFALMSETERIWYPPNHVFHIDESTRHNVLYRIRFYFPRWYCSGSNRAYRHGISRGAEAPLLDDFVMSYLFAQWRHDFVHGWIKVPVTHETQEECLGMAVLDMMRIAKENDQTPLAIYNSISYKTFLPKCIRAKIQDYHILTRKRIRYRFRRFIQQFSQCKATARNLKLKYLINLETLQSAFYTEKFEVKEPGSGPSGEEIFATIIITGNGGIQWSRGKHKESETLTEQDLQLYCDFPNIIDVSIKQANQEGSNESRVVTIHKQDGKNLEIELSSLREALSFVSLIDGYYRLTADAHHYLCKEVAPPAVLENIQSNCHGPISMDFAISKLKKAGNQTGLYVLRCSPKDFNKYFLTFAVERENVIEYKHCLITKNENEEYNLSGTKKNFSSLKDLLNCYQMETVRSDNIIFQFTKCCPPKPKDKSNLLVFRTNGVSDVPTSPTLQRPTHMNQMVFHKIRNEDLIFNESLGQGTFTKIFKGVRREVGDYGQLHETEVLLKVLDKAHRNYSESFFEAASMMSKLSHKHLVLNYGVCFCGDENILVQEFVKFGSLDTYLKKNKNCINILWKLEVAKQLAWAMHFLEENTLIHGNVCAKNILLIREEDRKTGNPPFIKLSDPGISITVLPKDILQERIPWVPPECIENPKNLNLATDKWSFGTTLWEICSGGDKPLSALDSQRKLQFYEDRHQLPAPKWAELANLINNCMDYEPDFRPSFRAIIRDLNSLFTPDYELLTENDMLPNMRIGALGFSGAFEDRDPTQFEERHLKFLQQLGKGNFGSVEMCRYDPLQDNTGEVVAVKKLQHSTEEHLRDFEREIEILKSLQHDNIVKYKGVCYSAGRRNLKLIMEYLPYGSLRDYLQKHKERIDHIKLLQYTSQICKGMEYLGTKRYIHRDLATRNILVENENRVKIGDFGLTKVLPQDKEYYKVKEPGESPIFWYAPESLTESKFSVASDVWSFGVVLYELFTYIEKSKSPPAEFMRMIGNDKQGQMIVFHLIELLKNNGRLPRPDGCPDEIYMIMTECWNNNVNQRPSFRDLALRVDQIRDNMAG
T1 sequence (O60674 whole entry): as the sequence (O60674 whole entry V617F) above, with F617V counted along it
T5 sequence (P11712 whole entry): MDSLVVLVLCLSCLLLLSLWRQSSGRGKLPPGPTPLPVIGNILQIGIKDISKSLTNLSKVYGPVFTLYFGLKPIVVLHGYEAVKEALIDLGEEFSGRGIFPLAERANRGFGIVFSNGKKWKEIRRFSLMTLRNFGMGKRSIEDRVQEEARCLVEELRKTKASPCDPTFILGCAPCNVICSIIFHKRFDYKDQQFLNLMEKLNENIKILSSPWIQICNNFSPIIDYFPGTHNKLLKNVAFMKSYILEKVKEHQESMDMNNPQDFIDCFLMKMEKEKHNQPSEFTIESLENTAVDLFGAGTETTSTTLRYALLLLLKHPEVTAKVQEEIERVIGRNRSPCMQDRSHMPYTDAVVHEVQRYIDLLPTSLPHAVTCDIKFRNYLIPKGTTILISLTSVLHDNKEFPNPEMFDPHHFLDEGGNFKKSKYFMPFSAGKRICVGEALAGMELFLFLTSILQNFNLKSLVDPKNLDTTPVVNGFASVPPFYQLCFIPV
T6 sequence (P08684 whole entry): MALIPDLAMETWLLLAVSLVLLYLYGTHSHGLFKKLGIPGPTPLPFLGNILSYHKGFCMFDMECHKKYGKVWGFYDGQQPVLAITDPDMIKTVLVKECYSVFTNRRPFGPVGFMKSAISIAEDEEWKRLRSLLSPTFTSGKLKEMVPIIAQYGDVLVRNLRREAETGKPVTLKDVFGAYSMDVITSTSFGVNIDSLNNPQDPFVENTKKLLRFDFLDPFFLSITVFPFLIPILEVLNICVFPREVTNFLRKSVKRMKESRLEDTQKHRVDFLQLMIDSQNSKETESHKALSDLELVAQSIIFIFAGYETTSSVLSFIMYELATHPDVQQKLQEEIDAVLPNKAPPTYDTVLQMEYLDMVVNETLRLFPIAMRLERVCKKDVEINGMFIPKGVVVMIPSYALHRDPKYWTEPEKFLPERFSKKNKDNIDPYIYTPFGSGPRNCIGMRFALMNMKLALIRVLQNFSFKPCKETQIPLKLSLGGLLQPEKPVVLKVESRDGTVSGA
T8 sequence (P10635 whole entry): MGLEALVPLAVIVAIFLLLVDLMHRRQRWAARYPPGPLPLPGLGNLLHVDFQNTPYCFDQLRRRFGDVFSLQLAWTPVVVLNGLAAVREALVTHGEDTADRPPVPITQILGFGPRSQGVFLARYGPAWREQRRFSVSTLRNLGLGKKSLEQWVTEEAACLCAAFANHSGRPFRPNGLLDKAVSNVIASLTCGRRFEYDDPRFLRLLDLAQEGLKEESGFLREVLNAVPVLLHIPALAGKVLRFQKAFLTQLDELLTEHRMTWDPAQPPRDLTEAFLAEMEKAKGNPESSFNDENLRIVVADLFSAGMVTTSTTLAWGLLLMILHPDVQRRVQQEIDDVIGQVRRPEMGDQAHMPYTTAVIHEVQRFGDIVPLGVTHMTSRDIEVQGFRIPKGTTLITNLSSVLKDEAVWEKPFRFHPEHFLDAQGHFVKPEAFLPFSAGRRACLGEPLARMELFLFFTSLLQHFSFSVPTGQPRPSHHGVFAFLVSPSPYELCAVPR

microsomal CLint at 1 μM [1] [µL/min/mg]	AUC [2] [ng·h/mL]	Vd [2] [L/kg]	clearance [2] [mL/min/kg]	half-life [2] [min]	pIC50 (JAK2; [4])	pIC50 (JAK2; [5])	microsomal CLint at 1 μM [3] [µL/min/mg]	pIC50 (JAK2V617F)	pIC50 (JAK1; [6])	pIC50 (JAK1; IC50 JAK1 (10 nM) (Km ATP), JAK1 10 nM, Km ATP)	pIC50 (TYK2)	pIC50 (CYP2C9)	pIC50 (CYP3A4)	pIC50 (CYP1A2)	pIC50 (CYP2D6)	pIC50 (CYP2C19)	SMILES
263	607	0.6	29.8	12	7.68	9.16	5.19	7.32	7.95	8.87							Cc1cnc(Nc2cnn(C3CC3)c2)nc1-c1ccc(C(=O)NCC#N)cc1 [Example 25, N-(Cyanomethyl)-4-(2-((1-cyclopropyl-1H-pyrazol-4-yl)amino)-5-methylpyrimidin-4-yl)benzamide]
					7.82				8.80		8.45	5.22	4.96	4.97	5.64	5.12	CC[C@@H](C#N)NC(=O)c1ccc(-c2nc(Nc3cn[nH]c3)ncc2Cl)cc1 [Example 185, (S)-4-(2-((1H-Pyrazol-4-yl)amino)-5-chloropyrimidin-4-yl)-N-(1-cyanopropyl)benzamide]
23.3	504	1.4	33.1	28.8		9.07	11	7.28	8.00		7.30						Cc1cnc(Nc2cnn(C)c2)nc1-c1ccc(C(=O)N[C@@H](C)C#N)cc1 [Example 18, (S)—N-(1-Cyanoethyl)-4-(5-methyl-2-((1-methyl-1H-pyrazol-4-yl)amino)pyrimidin-4-yl)benzamide]
132	624	0.98	27.1	26.4	7.02	8.49	4.6		7.43								Cc1cnc(Nc2cnn(C)c2)nc1-c1ccc(C(=O)NCC2(C#N)CC2)cc1 [Example 12, N-((1-Cyanocyclopropyl)methyl)-4-(5-methyl-2-((1-methyl-1H-pyrazol-4-yl)amino)pyrimidin-4-yl)benzamide]
53.6	1970	0.43	8.4	37.8	> 9.60	> 9.60	52.8	8.60	7.86								Cc1cnc(Nc2cnn(C3CCN(C(=O)C4CC4)CC3)c2)nc1-c1ccc(C(=O)NCC#N)cc1 [Example 24, N-(Cyanomethyl)-4-(2-((1-(1-(cyclopropanecarbonyl)piperidin-4-yl)-1H-pyrazol-4-yl)amino)-5-methylpyrimidin-4-yl)benzamide]
17.1	1060	0.6	15.8	30	8.99	9.48	9.3	7.51	7.85								Cc1cnc(Nc2cnn(C3CCOCC3)c2)nc1-c1ccc(C(=O)NCC#N)cc1 [Example 26, N-(Cyanomethyl)-4-(5-methyl-2-((1-(tetrahydro-2H-pyran-4-yl)-1H-pyrazol-4-yl)amino)pyrimidin-4-yl)benzamide]
	732	0.8	22.9	24	7.09	8.56		6.71									Cc1cnc(Nc2cnn(CC(F)(F)F)c2)nc1-c1ccc(C(=O)NCC#N)cc1 [Example 28, N-(Cyanomethyl)-4-(5-methyl-2-((1-(2,2,2-trifluoroethyl)-1H-pyrazol-4-yl)amino)pyrimidin-4-yl)benzamide]
51.9					> 9.60		180		8.06		9.24						CC[C@@H](C#N)NC(=O)c1ccc(-c2nc(Nc3cnn(C4CC(C)(C)OC(C)(C)C4)c3)ncc2Cl)cc1 [Example 182, (S)-4-(5-Chloro-2-((1-(2,2,6,6-tetramethyltetrahydro-2H-pyran-4-yl)-1H-pyrazol-4-yl)amino)pyrimidin-4-yl)-N-(1-cyanopropyl)benzamide]
16.9							2.39	6.83	7.95		6.66						C[C@H](C#N)NC(=O)c1ccc(-c2nc(Nc3cnn(C)c3)ncc2Cl)cc1 [Example 97, (R)-4-(5-Chloro-2-((1-methyl-1H-pyrazol-4-yl)amino)pyrimidin-4-yl)-N-(1-cyanoethyl)benzamide]
259							268	8.09	7.46		7.13						Cc1cnc(Nc2cnn(C3C[C@@H](C)O[C@@H](C)C3)c2)nc1-c1ccc(C(=O)N[C@@H](C)C#N)cc1 (stereo partly drawn) [Example 73, N—((S)-1-cyanoethyl)-4-(2-((1-(cis-2,6-dimethyltetrahydro-2H-pyran-4-yl)-1H-pyrazol-4-yl)amino)-5-methylpyrimidin-4-yl)benzamide]
161					7.81		7.27		7.98		7.66						Cc1cnc(Nc2cnn(C(C)C(F)(F)F)c2)nc1-c1ccc(C(=O)N[C@@H](C)C#N)cc1 (stereo partly drawn) [Example 166, N—((S)-1-Cyanoethyl)-4-(5-methyl-2-((1-(1,1,1-trifluoropropan-2-yl)-1H-pyrazol-4-yl)amino)pyrimidin-4-yl)benzamide]

— patent US12595253B2, “Benzamides of pyrazolylamino-pyrimidinyl derivatives, and compositions and methods thereof” (LYNK PHARMACEUTICALS CO. LTD., priority 2019, dated 2026)
